Measurements from US20240327372A1, “PREPARATION OF PHENE[…] […] STEREOISOMERS THEREOF AND PRECURSORS THEREOF” (priority 2022, published 2024).

Tests used:
SERT [1] = molecular target: T1, SERT (Rattus norvegicus (Rat), UniProt P31652); experiment: [3H]5-HT uptake inhibition in rat brain synaptosomes; format: biochemical
Method: Materials used were: Neurotransmitters [3H]5-HT (PerkinElmer, NET498001MC) [^3H]Dopamine (PerkinElmer, NET673250UC) [^3H]Norepinephrine (PerkinElmer, NET377250UC); Test Compounds Racemic methylone HCl (Merck, M-140); (R)-methylone HCl (Pisgah Labs); (S)-methylone HCl (Pisgah Labs); Reference Compounds Citalopram (Tocris Bioscience 1427). JHW007 (Tocris Bioscience 4351). Nomifensine (Abcam ab146004).
Synaptosomes were prepared from Sprague Dawley (200-250 g) rat brain regions (hippocampus for NE, striatum for DA and midbrain for 5-HT) using standard protocols. Tissues were dissected, added to sucrose buffer (0.32 M), homogenized with a dounce-homogenizer and centrifuged at 100×g to remove cells and debris. Supernatant was collected and centrifuged 17,000×g for 10 minutes at 4° C. to pellet the synaptosomes. The pellet was resuspended in fresh assay buffer.
Uptake assays were carried out in 96-well plates in a final volume of 250 μL per well. To each well was added 150 μL synaptosomes, 50 μL test, non-specific compound or buffer alone. The plate was incubated at 30° C. for 30 minutes with gentle agitation. 50 μL radiolabeled neurotransmitter in buffer was then added to each well to initiate the uptake. The plate was incubated at 30° C. for a further 5 minutes with gentle agitation. The incubation was stopped by vacuum filtration onto presoaked GF/C filters using a 96-well FilterMate™ harvester, followed by 3 washes with ice-cold wash buffer. Filters were then dried under a warm air stream, sealed in polyethylene, scintillation cocktail added, and the radioactivity counted in a Wallac® TriLux 1450 MicroBeta counter.
For each concentration of drug, non-specific uptake was subtracted from total uptake to give specific uptake. Data was fitted using the non-linear curve fitting routines in Prism® (Graphpad Software Inc) to determine IC50.

[2] = molecular target: norepinephrine transporter (NET); experiment: Competition radioligand binding, [3H]Nisoxetine, rat brain membranes; conditions: for IC50 / Ki: NE transporter; for Ki: Cheng-Prusoff
Source text: Rat brain (Sprague Dawley, 200-250 g) synaptosomes were isolated from midbrain and hindbrain for serotonin transporter assays, striatum for dopamine transporter assays, and hippocampus plus overlying occipital cortex for norepinephrine transporter assays. Radioligands used were: [^3H]Citalopram 81.4 Ci/mmol (PerkinElmer NET1039250UC; Lot No. 2960876). [^3H]WIN35428 82.8 Ci/mmol (PerkinElmer NET1033250UC; Lot No. 2891473). [^3H]Nisoxetine 79.2 Ci/mmol (PerkinElmer NET1084250UC; Lot No. 2970324). Non-specific compounds used were: Citalopram (Tocris Bioscience 1427). JHW007 (Tocris Bioscience 4351). Nomifensine (Abcam ab146004). Test Compounds for the study were: racemic methylone HCl; (R)-methylone HCl; (S)-methylone HCl.
For membrane preparations, rat brains were dissected, tissue was added to ice-cold lysis buffer (50 mM Tris HCl; 5 mM MgCl2; 5 mM EDTA; protease inhibitor cocktail) and homogenized. The homogenate was centrifuged at 100×g for 2 minutes and the supernatant divided into polypropylene Eppendorf tubes. The supernatants were centrifuged at 17,000×g for 10 minutes at 4° C. to re-pellet the cell lysate. The pellet was resuspended in fresh wash buffer (50 mM Tris-HCl; 5 mM MgCl2; 5 mM EDTA) and centrifuged a third time at 17,000×g for 10 minutes at 4° C. The pellet was resuspended in wash buffer containing 10% sucrose as a cryoprotectant, divided into aliquots (0.3 mL) and stored at −80° C. A sample of the homogenate was analyzed for protein content using the MERCK® BCA assay. On the day of the assay, the membrane preparation was thawed and the pellet resuspended in final assay buffer.
Competition binding assays were carried out in 96-well polypropylene plates in a final volume of 250 μL per well. To each well was added 150 μL membranes, 50 μL of test compound, non-specific compound or buffer, and 50 μL radioligand solution in buffer. The plate was incubated at 30° C. for 90 minutes with gentle agitation. The incubation was stopped by vacuum filtration onto presoaked (wash buffer with PEI) GF/C filters using a 96-well FILTERMATE™ harvester, followed by 5 washes with ice-cold wash buffer. Filters were then dried under a warm air stream, sealed in polyethylene, scintillation cocktail added, and the radioactivity counted in a WALLAC® TriLux 1450 MicroBeta counter. For each concentration of drug, non-specific binding was subtracted from total binding to give specific binding. Data was fitted using the non-linear curve fitting routines in PRISM® (Graphpad Software Inc) to determine IC50. Ki was subsequently calculated using the ChengPrusoff equation.

SERT [3] = molecular target: T1, SERT; experiment: 5-HT release study; format: biochemical

Row | Compound | IC50 (SERT [1]) | IC50 [2] | Ki [2] | EC50 (SERT [3]) | Potency relative to racemic methylone ([2]; NET binding)
1 | CN[C@H](C)C(=O)c1ccc2c(c1)OCO2 [(R)-methylone] | 7.62 µM | 4.67 µM | 2.19 µM | – | –
2 | CN[C@@H](C)C(=O)c1ccc2c(c1)OCO2 [(S)-methylone] | 0.395 µM | 7.12 µM | 3.37 µM | 1.18 µM | nearly two-fold less potent
